# Reference: patent publication US20070202179A1, “Low Dose Pharmaceutical Products” (priority 2004, published 2007)
# Biological target: T1, human PPAR alpha (Homo sapiens, UniProt Q07869)
# T1 sequence (Q07869 1-468): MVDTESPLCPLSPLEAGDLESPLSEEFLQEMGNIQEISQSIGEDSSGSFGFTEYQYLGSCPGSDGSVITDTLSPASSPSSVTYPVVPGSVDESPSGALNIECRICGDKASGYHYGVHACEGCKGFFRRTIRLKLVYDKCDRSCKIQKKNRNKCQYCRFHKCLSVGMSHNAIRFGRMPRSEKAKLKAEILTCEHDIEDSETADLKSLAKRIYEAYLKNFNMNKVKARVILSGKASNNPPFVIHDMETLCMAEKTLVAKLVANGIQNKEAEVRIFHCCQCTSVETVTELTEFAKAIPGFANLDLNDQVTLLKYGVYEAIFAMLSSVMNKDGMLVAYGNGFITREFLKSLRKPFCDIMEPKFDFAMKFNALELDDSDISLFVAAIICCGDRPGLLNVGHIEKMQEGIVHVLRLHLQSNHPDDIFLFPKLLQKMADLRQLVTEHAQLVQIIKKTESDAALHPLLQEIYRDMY
# Assay: Effectiveness of Compound 1 at very low daily dosage regimes
# Format: in vivo
# Conditions: investigated for dyslipidemia, syndrome X and atherosclerosis
# Procedure: The compound of formula (1) is a particularly preferred PPAR alpha agonist and is described in WO 01/40207 as being of use in human PPAR alpha mediated diseases. The dosage regime contemplated in WO 01/40207 is 0.02-5000 mg per day. […] Thus the invention further provides a pharmaceutical composition comprising less than 1-100 μg Compound (1) or pharmaceutically acceptable salts, solvates and physiologically functional derivatives thereof together with a pharmaceutically acceptable carrier. Preferably the composition comprises less than 20 μg, more preferably 1-18 μg, most preferably 1-10 μg.
smiles,measurement,value
"Cc1nc(-c2ccc(C(F)(F)F)cc2)sc1C(=O)NCc1ccc(OC(C)(C)C(=O)O)cc1 [Compound 1, 2-methyl-2-[4-{[(4-methyl-2-[4-trifluoromethylphenyl]-thiazol-5-ylcarbonyl)amino]methyl}phenoxy]propionic acid]",Dosage regime at which the compound is effective,less than 0.02 mg per day
